Patent publication US6187787A, “Bis(9-aminoacridine) DNA intercalating agents having antitumor activity” (Trustees of Dartmouth College, priority 2000, dated 2001)

Tested on: DNA
Assay: not given
Details: DNA binding characteristics of acridine dimers, Le Pecq et al. 1975; cited from earlier work
In the case of COc1ccc2nc3cc(Cl)ccc3c(NCCCNCCCCNCCCNc3c4ccc(Cl)cc4nc4ccc(OC)cc34)c2c1 [IIA], the “mode of intercalation (bis- or monofunctional)” value (shortened to “mode of intercalation”) is given as “bisintercalated”. For COc1ccc2nc3cc(Cl)ccc3c(NCCCCNCCCNc3c4ccc(Cl)cc4nc4ccc(OC)cc34)c2c1 [IIB], the “mode of intercalation” value is given as “bisintercalated”. In the case of COc1ccc2nc3cc(Cl)ccc3c(NCCCNCCCNc3c4ccc(Cl)cc4nc4ccc(OC)cc34)c2c1 [III], the “mode of intercalation” value is given as “only one of the two rings of the dimer with the shortest chain (III) of 9 angstroms was intercalated”.

Tested on: calf thymus DNA
Assay: Thermal denaturation studies on calf thymus DNA
Assay type: binding
Details: increase of denaturation temperature
Method: Thermal denaturation studies were performed on calf thymus DNA. Addition of the compounds of the present invention to the calf thymus DNA caused the denaturation temperature to increase approximately 11° C. (see Table 1).
With c1ccc2c(NC3CCC(CC4CCC(Nc5c6ccccc6nc6ccccc56)CC4)CC3)c3ccccc3nc2c1 (centres unmarked) the ΔTm was 25.9 ± 4.1 °C. CC(C)(c1ccc(Oc2ccc(Nc3c4ccccc4nc4ccccc34)cc2)cc1)c1ccc(Oc2ccc(Nc3c4ccccc4nc4ccccc34)cc2)cc1 showed a ΔTm of 11.6 ± 0.4 °C. With CC(C)(c1ccc(Nc2c3ccccc3nc3ccccc23)cc1)c1ccc(C(C)(C)c2ccc(Nc3c4ccccc4nc4ccccc34)cc2)cc1 the ΔTm was 10.9 ± 0.31 °C.

Tested on: L1210 murine leukemia cells
Assay: Cytotoxicity in the murine leukemia cell line L1210 (growth inhibition, 72 hours)
Assay type: cell-based
Details: Mus musculus, L1210, 72 h, read-out: ID50
Method: Using the methodologies disclosed by Jaycox et al. J. Heterocyclic. […] A number of intercalating agents currently in clinical use for treatment of cancer were also evaluated in this assay for comparison.
L1210 murine leukemia cells were routinely maintained as suspension cultures in McCoy's 5A medium supplemented with 10% horse serum, glutamine, penicillin, and streptomycin and grown in a humidified environment of 10% carbon dioxide and 90% air at 37° C. Compounds were dissolved in dimethyl sulfoxide (DMSO) and 40 μg was added to 4 ml of L1210 cells (10^5 cells/tube) to attain final drug concentrations of 0.01, 0.1 and 10 μg/ml of culture. After 72 hours of continuous exposure to the drug, the cell concentration was determined by a Coulter counter (Model ZBF, Hialeah, Fla.). Growth inhibition was calculated for each drug concentration using the following formula:
% growth inhibition=(1-A)×100, wherein A=[cell # treated/cell # in
The growth inhibition data were then used to calculate the ID50 value (the calculated drug concentration required to inhibit cell growth by 50% of control).
Cn1cc(NC(=O)c2cc(NC(=O)c3cc(NC=O)cn3C)cn2C)cc1C(=O)NCCC(=N)N [distamycin-A, reference compound] showed an IC50 of 6 µM. With CC[n+]1c(-c2ccccc2)c2cc(N)ccc2c2ccc(N)cc21 [ethidium bromide, reference compound] the IC50 was 4.1 µM.

Same assay, conditions: Mus musculus; L1210 murine leukemia; 72 hours of continuous exposure; concentration which inhibits growth of 50% of the cells; read-out: ID50 (the source's name)
Compound c1ccc2c(N[C@H]3CC[C@@H](C[C@H]4CC[C@@H](Nc5c6ccccc6nc6ccccc56)CC4)CC3)c3ccccc3nc2c1 has an IC50 of 0.44 µM. c1ccc2c(N[C@H]3CC[C@@H](C[C@H]4CC[C@H](Nc5c6ccccc6nc6ccccc56)CC4)CC3)c3ccccc3nc2c1 showed an IC50 of 0.56 µM. In the case of c1ccc2c(N[C@H]3CC[C@H](C[C@H]4CC[C@H](Nc5c6ccccc6nc6ccccc56)CC4)CC3)c3ccccc3nc2c1, the IC50 is reported as 0.5 µM. In the case of CC(C)(c1ccc(Oc2ccc(Nc3c4ccccc4nc4ccccc34)cc2)cc1)c1ccc(Oc2ccc(Nc3c4ccccc4nc4ccccc34)cc2)cc1, the IC50 is reported as 5.4 µM. CC(C)(c1ccc(Nc2c3ccccc3nc3ccccc23)cc1)c1ccc(C(C)(C)c2ccc(Nc3c4ccccc4nc4ccccc34)cc2)cc1 showed an IC50 greater than 13 µM. Compound c1cc(Nc2c3ccccc3nc3ccccc23)cc(Oc2cccc(Oc3cccc(Nc4c5ccccc5nc5ccccc45)c3)c2)c1 has an IC50 of 5.9 µM. For Cc1cc2cccnc2c2ncccc12 [5-methyl-1,10-phenanthroline, reference compound], the IC50 was 2 µM. For Nc1c2ccccc2nc2ccccc12 [9-aminoacridine], the IC50 was 2.3 µM. Work on Cc1c2ccncc2c(C)c2c1[nH]c1ccccc12 [ellipticine, reference compound] yielded an IC50 of 0.53 µM.
